Measured values as given in ChEMBL document CHEMBL5244280, “Evodiamine Lowers Blood Lipids by Up-Regulating the PPARγ/ABCG1 Pathway in High-Fat-Diet-Fed Mice” (J Nat Prod, 2021).
Calls of active or inactive are those of the source. The rule behind the calls is not given here.

Key:
[1] = Toxicity in normal diet fed ICR mouse assessed as ratio of heart weight to body weight at 10 mg/kg, ig administered daily via gavage for 8 weeks (reference value: 0.46 +/-0.03); assay type: organism-based; conditions: in vivo, po, 1344 h
Mus musculus [2] = assay: Protection against hyperlipidemia in high fat diet-fed hyperlipidemic ICR mouse model assessed as serum HDL-C content at 10 mg/kg, ig administered daily via gavage for 8 weeks by spectrophotometric analysis; assay type: functional, organism-based
Mus musculus [3] = assay: Protection against hyperlipidemia in high fat diet-fed hyperlipidemic ICR mouse model assessed as reduction in serum total cholesterol content at 10 mg/kg, ig administered daily via gavage for 8 weeks by spectrophotometric analysis; assay type: functional; conditions: po, 1344 h
Mus musculus [4] = assay: Protection against hyperlipidemia in high fat diet-fed hyperlipidemic ICR mouse model assessed as reduction in hepatic total cholesterol content at 20 mg/kg, ig administered daily via gavage for 8 weeks by colorimetric assay; assay type: functional, organism-based
[5] = Toxicity against normal diet-fed ICR mouse assessed as effect on plasma total cholesterol content at 10 mg/kg, ig administered daily via gavage for 8 weeks by spectrophotometric analysis; assay type: organism-based; conditions: in vivo, po, 1344 h
Mus musculus [6] = assay: Upregulation of ABCA1 protein expression in liver of high fat diet fed hyperlipidemic ICR mouse model at 10 mg/kg, ig administered daily via gavage for 8 weeks by western blotting analysis; assay type: functional, organism-based
Mus musculus [7] = assay: Protection against hyperlipidemia in high fat diet-fed hyperlipidemic ICR mouse model assessed as normal and less pale colored liver at 10 to 20 mg/kg, ig administered daily via gavage for 8 weeks; assay type: functional, organism-based; conditions: dose 10-20 mg/kg
Mus musculus [8] = assay: Upregulation of NPC1 mRNA expression in liver of high fat diet fed hyperlipidemic ICR mouse model at 10 mg/kg, ig administered daily via gavage for 8 weeks by qPCR analysis; assay type: functional, organism-based
[9] = Toxicity in normal diet fed ICR mouse assessed as ratio of lung weight to body weight at 10 mg/kg, ig administered daily via gavage for 8 weeks (reference value: 0.83 +/-0.32); assay type: organism-based; conditions: in vivo, po, 1344 h
Mus musculus [10] = assay: Upregulation of ABCG1 mRNA expression in liver of high fat diet fed hyperlipidemic ICR mouse model at 10 mg/kg, ig administered daily via gavage for 8 weeks by qPCR analysis relative to control; assay type: functional
Mus musculus [11] = assay: Protection against hyperlipidemia in high fat diet-fed hyperlipidemic ICR mouse model assessed as reduction in serum triglyceride content at 20 mg/kg, ig administered daily via gavage for 8 weeks by spectrophotometric analysis; assay type: functional, organism-based
Mus musculus [12] = assay: Protection against hyperlipidemia in high fat diet-fed hyperlipidemic ICR mouse model assessed as reduction in hepatic total cholesterol content at 10 mg/kg, ig administered daily via gavage for 8 weeks by colorimetric assay; assay type: functional; conditions: po, 1344 h
Mus musculus [13] = assay: Upregulation of ABCA1 mRNA expression in liver of high fat diet fed hyperlipidemic ICR mouse model at 10 mg/kg, ig administered daily via gavage for 8 weeks by qPCR analysis; assay type: functional, organism-based
Mus musculus [14] = assay: Protection against hyperlipidemia in high fat diet-fed hyperlipidemic ICR mouse model assessed as serum HDL-C content at 20 mg/kg, ig administered daily via gavage for 8 weeks by spectrophotometric analysis; assay type: functional, organism-based
[15] = Toxicity in normal diet fed ICR mouse assessed as ratio of kidney weight to body weight at 10 mg/kg, ig administered daily via gavage for 8 weeks (reference value: 1.33 +/-0.12); assay type: organism-based; conditions: in vivo, po, 1344 h
[16] = Toxicity in normal diet fed ICR mouse assessed as liver histological changes at 10 mg/kg, ig administered daily via gavage for 8 weeks by Hematoxylin and eosin staining based analysis; assay type: organism-based; conditions: in vivo, po, 1344 h
[17] = Toxicity in high fat diet fed hyperlipidemic ICR mouse model assessed as ratio of liver weight to body weight at 10 mg/kg, ig administered daily via gavage for 8 weeks (reference value: 4.23 +/-0.79); assay type: organism-based; conditions: in vivo, po, 1344 h
Mus musculus [18] = assay: Upregulation of PPAR-gamma mRNA expression in liver of high fat diet fed hyperlipidemic ICR mouse model at 10 to 20 mg/kg, ig administered daily via gavage for 8 weeks by qPCR analysis; assay type: functional, organism-based; conditions: dose 10-20 mg/kg
Mus musculus [19] = assay: Effect on food intake in high fat diet-fed hyperlipidemic ICR mouse model at 10 mg/kg, ig administered daily via gavage for 8 weeks; assay type: functional, organism-based
Mus musculus [20] = assay: Upregulation of PPAR-gamma protein expression in liver of high fat diet fed hyperlipidemic ICR mouse model at 10 to 20 mg/kg, ig administered daily via gavage for 8 weeks by western blotting analysis; assay type: functional, organism-based; conditions: dose 10-20 mg/kg
Mus musculus [21] = assay: Protection against hyperlipidemia in high fat diet-fed hyperlipidemic ICR mouse model assessed as reduction in hepatic triglyceride content at 20 mg/kg, ig administered daily via gavage for 8 weeks by colorimetric assay; assay type: functional, organism-based
Mus musculus [22] = assay: Upregulation of ABCG1 protein expression in liver of high fat diet fed hyperlipidemic ICR mouse model at 10 mg/kg, ig administered daily via gavage for 8 weeks by western blotting analysis; assay type: functional, organism-based
[23] = Toxicity in normal diet fed ICR mouse assessed as ratio of stomach weight to body weight at 10 mg/kg, ig administered daily via gavage for 8 weeks (reference value: 1.24 +/-0.41); assay type: organism-based; conditions: in vivo, po, 1344 h
[24] = Toxicity against normal diet-fed ICR mouse assessed as effect on plasma triglyceride content at 10 mg/kg, ig administered daily via gavage for 8 weeks by spectrophotometric analysis; assay type: organism-based; conditions: in vivo, po, 1344 h
Mus musculus [25] = assay: Protection against hyperlipidemia in high fat diet-fed hyperlipidemic ICR mouse model assessed as reduction in serum triglyceride content at 10 mg/kg, ig administered daily via gavage for 8 weeks by spectrophotometric analysis; assay type: functional; conditions: po, 1344 h
[26] = Toxicity in high fat diet fed hyperlipidemic ICR mouse model assessed as ratio of spleen weight to body weight at 10 mg/kg, ig administered daily via gavage for 8 weeks (reference value: 0.43 +/-0.11); assay type: organism-based; conditions: in vivo, po, 1344 h
Mus musculus [27] = assay: Downregulation of ABCG8 mRNA expression in liver of high fat diet fed hyperlipidemic ICR mouse model at 10 mg/kg, ig administered daily via gavage for 8 weeks by qPCR analysis; assay type: functional, organism-based
Mus musculus [28] = assay: Upregulation of SR-B1 protein expression in liver of high fat diet fed hyperlipidemic ICR mouse model at 10 mg/kg, ig administered daily via gavage for 8 weeks by western blotting analysis; assay type: functional, organism-based
Mus musculus [29] = assay: Protection against hyperlipidemia in high fat diet-fed hyperlipidemic ICR mouse model assessed as reduction in serum LDL-C content at 20 mg/kg, ig administered daily via gavage for 8 weeks by spectrophotometric analysis; assay type: functional, organism-based
Mus musculus [30] = assay: Protection against hyperlipidemia in high fat diet-fed hyperlipidemic ICR mouse model assessed as reduction in serum total cholesterol content at 20 mg/kg, ig administered daily via gavage for 8 weeks by spectrophotometric analysis; assay type: functional, organism-based
Mus musculus [31] = assay: Protection against hyperlipidemia in high fat diet-fed hyperlipidemic ICR mouse model assessed as reduction in hepatic TBA content at 10 to 20 mg/kg, ig administered daily via gavage for 8 weeks by colorimetric assay; assay type: functional, organism-based; conditions: dose 10-20 mg/kg
[32] = Toxicity in normal diet fed ICR mouse assessed as hepatic total cholesterol content at 10 mg/kg, ig administered daily via gavage for 8 weeks by colorimetric assay; assay type: organism-based; conditions: in vivo, po, 1344 h
[33] = Toxicity in high fat diet fed hyperlipidemic ICR mouse model assessed as ratio of kidney weight to body weight at 10 mg/kg, ig administered daily via gavage for 8 weeks (reference value: 1.34 +/-0.09); assay type: organism-based; conditions: in vivo, po, 1344 h

Compound: CN1c2ccccc2C(=O)N2CCc3c([nH]c4ccccc34)C21 (stereo not drawn)
- Ratio [1]: 0.49
- Activity (Mus musculus [2]): inactive
- inhibition in vivo at 10 mg/kg (Mus musculus [3]): 50%
- Activity (Mus musculus [4]): Active
- Activity [5]: Non-Toxic
- Activity (Mus musculus [6]): inactive
- Activity (Mus musculus [7]): Active
- Activity (Mus musculus [8]): inactive
- Ratio [9]: 0.78
- fold change (FC) (Mus musculus [10]): 3.6
- Activity (Mus musculus [11]): Active
- inhibition in vivo at 10 mg/kg (Mus musculus [12]): 42.3%
- Activity (Mus musculus [13]): inactive
- Activity (Mus musculus [14]): inactive
- Ratio [15]: 1.33
- Activity [16]: Non-Toxic
- Ratio [17]: 3.85
- Activity (Mus musculus [18]): Active
- Activity (Mus musculus [19]): inactive
- Activity (Mus musculus [20]): Active
- Activity (Mus musculus [21]): Active
- Activity (Mus musculus [22]): Active
- Ratio [23]: 1.48
- Activity [24]: Non-Toxic
- inhibition in vivo at 10 mg/kg (Mus musculus [25]): 34%
- Ratio [26]: 0.37
- inhibition (Mus musculus [27]): Active
- Activity (Mus musculus [28]): Active
- Activity (Mus musculus [29]): Active
- Activity (Mus musculus [30]): Active
- Activity (Mus musculus [31]): Active
- Activity [32]: Non-Toxic
- Ratio [33]: 1.29
